Data published in patent US20240217988A1, “ESTROGEN RECEPTOR ANTAGONIST” (Shenzhen Forward Pharmaceuticals Co., Limited, priority 2021, published 2024).

Columns and labels:
ERα = ERα (Homo sapiens (Human), UniProt P03372); experiment: Degradation effect of compound on ERα (ERα DuoSet IC ELISA in MCF-7 cells); assay type: cell-based; conditions: 24 h with compound, read-out: IC50 value of ERα degradation by compound
Experimental: In this test example, ERα DuoSet IC ELISA Kit (R&D, DYC5715) was used to detect the degradation effect of the compound on ERα. On the first day of the experiment, human breast cancer cells MCF-7 (the source was as above) were inoculated into a 24-well plate. The culture medium was an MEM culture medium containing 10% of activated-carbon-treated FBS (Tocyto, UT61204), 1% of pyruvic acid and 1% of nonessential amino acid. The inoculation density was 150,000 cells/well. The cells were cultured at 37° C., 5% CO2 for 24 h.
On the second day of the experiment, the compound to be tested was diluted in gradient and added to a 24-well plate containing cells. The cells were cultured for 24 h at 37° C., 5% CO2. ERα capture antibody was diluted to 1 μg/ml with PBS (Corning, 21-040-CVR) and added to a 96-well plate at 100 μL/well, and the plate was […] coated overnight at room temperature.
On the third day of the experiment, the coated 96-well plate was washed three times with PBS, 300 μL of a blocking solution (R&D, DY995) was added to each well, and the plate was blocked at room temperature for 1 h. The 24-well plate was washed once with PBS, and the residual liquid was sucked off. […] The diluted cell lysate was taken and added to the blocked 96-well plate, with 100 μL per well, and incubated at room temperature for 2 h. The plate was washed three times with a washing solution (R&D, WA126), and a primary antibody was then added. After incubation for 1 h, the 96-well plate was washed four times, a secondary antibody was added, and incubation was carried out at room temperature in the dark for 30 min. The plate was washed four times with the washing solution, and TMB (R&D, DY999) was added. After 15 minutes of development, the reaction was terminated with a stop solution (R&D, DY994), and the light absorption at 450 nm was read.

GST-ERα-LBD = GST-ERα-LBD (Homo sapiens (Human), UniProt P03372); experiment: ERα TR-FRET test; assay type: biochemical; conditions: estradiol final concentration 1.5 nM, biotin-SRC2
Experimental: 1× Tris-HCl (Sigma, PHG0002) protein buffer was prepared and mixed for later use. The compound to be detected was prepared into a stock solution with a concentration of 2 mM and then subjected to serial 3-fold gradient dilution, resulting in a total of 10 concentrations.
Preparation of 1× protein mixed solution: firstly, 2× GST-ERα-LBD (Invitrogen, A15677)/MAb anti-GST-Eu (Cisbio, 61GSTKLA) mixed solution was prepared according to the following table.
2× biotin-SRC2/streptavidin-XL665 (Cisbio, 610SAXLA) mixed solution was prepared.
The above 2× GST-NR-LBD/ MAb anti-GST-Eu solution and 2× biotin-SRC2/streptavidin-XL665 solution were uniformly mixed at a volume ratio of 1:1; and the 1× protein mixed solution was added to each well of a 384-well plate, with 20 μL being added per well, the 384-well plate was put into a centrifuge and centrifuged at room temperature at 1000 rpm for 10 seconds, and it was taken out, then left to stand at room temperature for 3 h, and then read by EnVision multifunctional microplate reader.
The inhibition rate was calculated according to the following formula: […]
The data were imported into Graphpad Prism, and Log(agonist) vs. response-variable slope was used for curve fitting.
Y=Bottom+(Top−Bottom)/(1+10^((LogEC50−X)*HillSlope)) Fitting formula

[1] = system: Human breast cancer cells MCF-7; experiment: MCF-7 cell proliferation experiment; assay type: cell-based; conditions: Homo sapiens, MCF7; MCF-7 cells, 72 hours, Cell Titer-Glo
Experimental: Test Example 2: MCF-7 Cell Proliferation Experiment
Human breast cancer cells MCF-7 (HTB-22, purchased from ATCC) were inoculated into a 96-well plate. The culture medium was an MEM (Hyclone, SH30024.01B) culture medium containing 10% of FBS (Gibco, 10099-141), 1% of pyruvic acid (Sigma, S8636), and 1% of nonessential amino acid (Sigma, M7145), and the inoculation density was 4,000 cells/well. The cells were cultured at 37° C., 5% CO2. The compound was prepared into a 20 mM stock solution, which was subjected to gradient dilution to a final concentration of […] with 100% DMSO (Sigma, D2650) and then diluted 20 folds with a culture medium containing 2% of FBS. After 24 hours of culture, the culture medium was removed, 90 μL of a culture medium containing 2% of FBS and 10 μL of drug were added to each well, while 10 μL of DMSO was added to the control group, and they were gently shaken and mixed. The blank group only contained 100 μL of 2% FBS culture medium. They were placed in an incubator and cultured at 37° C., 5% CO2. After 72 hours, 50 μL of mixed Cell Titer-Glo (Promega, G7571) was added. They were shaken and mixed uniformly, and placed at room temperature for 10 min. The chemiluminescence signal value was determined. The negative control was 0.5% DMSO well.

[2] = Stability in human liver microsomes in vitro; assay type: in vitro ADME; conditions: human liver microsomes; for half-life: microsome protein 1 mg/mL working solution, NADPH; for CLint scaled: scaled to liver; for microsomal CLint: read-out: CLint(mic)
Experimental: Test Example 4: Test for Stability in Human Liver Microsomes In Vitro Eight 96-well incubation plates were prepared and named [NT], Blank60 and NCF60, respectively. […] No test compound or control compound was added to Blank60 plate, and samples were taken after incubation for 60 min. NCF60 plate was incubated with a potassium phosphate buffer instead of an NADPH regeneration system solution (Sigma, N0505) for 60 min. […] Only the microsome working solution was added to Blank60 plate, and the incubation plates Blank60, T5, T15, T30, T45 and T60 except T0 and NCF60 were then placed in a water bath at 37° C. and pre-incubated for about 10 min. To the samples of T0 plate, 600 μL of a stop solution (acetonitrile:methanol (95:5, v/v) solution containing 100 ng/mL of tolbutamide (Sigma, T0891)) was added first, and the NADPH regeneration system working solution was then added. 98 μL of a potassium phosphate buffer was added to each well of NCF60 plate and incubated for 60 min. After the pre-incubation in the incubation plates Blank60, T5, T15, T30, T45 and T60 was completed, 98 μL of the NADPH regeneration system working solution was added to each sample well to initiate the reaction. After an appropriate incubation time (such as 5, 15, 30, 45 and 60 min), 600 μL of a stop solution was added to each sample well and the control sample well in Blank60, […] the reaction. All the sample plates were shaken uniformly and centrifuged at 3220×g for 20 min. 200 μL of test sample supernatant was separately taken and diluted in 200 μL of an aqueous solution containing 0.3% formic acid for LC-MS/MS analysis, and 100 μL of control sample supernatant was taken and diluted in 300 μL of pure water for LC-MS/MS analysis. Calculation was performed according to the following formula: [formula] [formula] [formula] [formula] [formula] [formula]

GST-ERα-LBD, sequence (P03372 311-547): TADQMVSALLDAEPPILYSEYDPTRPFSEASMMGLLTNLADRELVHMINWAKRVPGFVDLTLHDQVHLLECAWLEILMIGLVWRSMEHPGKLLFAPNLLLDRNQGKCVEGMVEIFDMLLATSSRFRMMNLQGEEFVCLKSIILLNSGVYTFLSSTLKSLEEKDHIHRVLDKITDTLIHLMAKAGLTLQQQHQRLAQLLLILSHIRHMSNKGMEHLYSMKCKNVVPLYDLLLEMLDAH
ERα, sequence (P03372 whole entry): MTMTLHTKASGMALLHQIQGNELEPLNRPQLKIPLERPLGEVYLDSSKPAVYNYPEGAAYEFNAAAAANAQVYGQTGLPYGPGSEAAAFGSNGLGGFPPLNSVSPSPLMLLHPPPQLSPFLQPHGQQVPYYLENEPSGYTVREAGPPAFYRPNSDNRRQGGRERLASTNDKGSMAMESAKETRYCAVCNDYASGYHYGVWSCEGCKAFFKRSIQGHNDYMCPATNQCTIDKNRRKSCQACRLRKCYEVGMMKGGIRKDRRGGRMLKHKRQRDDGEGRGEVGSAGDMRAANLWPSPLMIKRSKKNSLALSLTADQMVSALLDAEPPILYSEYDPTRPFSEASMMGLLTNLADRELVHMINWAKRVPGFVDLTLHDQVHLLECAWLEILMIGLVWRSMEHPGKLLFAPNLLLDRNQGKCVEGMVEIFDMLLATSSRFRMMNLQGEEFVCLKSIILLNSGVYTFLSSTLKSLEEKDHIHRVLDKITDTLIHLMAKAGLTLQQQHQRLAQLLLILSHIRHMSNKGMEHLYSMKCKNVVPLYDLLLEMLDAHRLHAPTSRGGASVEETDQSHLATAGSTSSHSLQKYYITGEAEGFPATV

Structure (SMILES) | DC50 (ERα) [nM] | IC50 (GST-ERα-LBD) [nM] | IC50 [1] [nM] | half-life [2] [min] | CLint scaled [2] [mL/min/kg] | microsomal CLint [2] [µL/min/mg]
CC(C)CN1[C@H](c2c(F)cc(OCCN3CC(CF)C3)cc2F)c2ccc3[nH]c(=O)oc3c2C[C@H]1C [Example 1] | 0.62 | 9 | 0.39 | 91.8 | 13.6 | 15.1
C[C@@H]1Cc2c(ccc3[nH]c(=O)oc23)[C@@H](c2c(F)cc(NC3CN(CCCF)C3)cc2F)N1CC(F)(F)CO [Example 9, (6S,8R)-7-(2,2-difluoro-3-hydroxypropyl)-6-(2,6-difluoro-4-((1-(3-fluoropropyl)azetidin-3-yl)amino)phenyl)-8-methyl-6,7,8,9-tetrahydrooxazolo[5,4-f]isoquinolin-2(3H)-one] | 0.39 | 21.6 | 0.19 |  |  | 
C[C@@H]1Cc2c(ccc3[nH]c(=O)oc23)[C@@H](c2c(F)cc(NC3CN(CCCF)C3)cc2F)N1CC(F)(F)F [Example 10, (6S,8R)-6-(2,6-difluoro-4-((1-(3-fluoropropyl)azetidin-3-yl)amino)phenyl)-8-methyl-7-(2,2,2-trifluoroethyl)-6,7,8,9-tetrahydrooxazolo[5,4-f]isoquinolin-2(3H)-one] | 0.41 | 7.8 | 0.2 | 116 | 8.1 | 9
C[C@@H]1Cc2c(ccc3[nH]c(=O)oc23)[C@@H](c2c(F)cc(OC3CN(CCCF)C3)cc2F)N1CC(F)(F)F [Example 12, (6S,8R)-6-(2,6-difluoro-4-((1-(3-fluoropropyl)azetidin-3-yl)oxy)phenyl)-8-methyl-7-(2,2,2-trifluoroethyl)-6,7,8,9-tetrahydrooxazolo[5,4-f]isoquinolin-2(3H)-one] | 0.57 | 15.6 | 0.49 | 104 | 8.9 | 9.8
C[C@@H]1Cc2c(ccc3[nH]c(=O)oc23)[C@@H](c2c(F)cc(N3CC4(CN(CCF)C4)C3)cc2F)N1CC(F)(F)CO [Example 14, (6S,8R)-7-(2,2-difluoro-3-hydroxypropyl)-6-(2,6-difluoro-4-(6-(2-fluoroethyl)-2,6-diazspiro[3.3]hept-2-yl)phenyl)-8-methyl-6,7,8,9-tetrahydrooxazolo[5,4-f]isoquinolin-2(3H)-one] |  | 40.3 | 0.44 | 109 | 8.7 | 9.5
COc1cc(NC2CN(CCCF)C2)ccc1[C@@H]1c2ccc3[nH]c(=O)oc3c2C[C@@H](C)N1CC(F)(F)F [Example 25, (6S,8R)-6-(4-((1-(3-fluoropropyl)azetidin-3-yl)amino)-2-methoxyphenyl)-8-methyl-7-(2,2,2-trifluoroethyl)-6,7,8,9-6,7,8,9-tetrahydrooxazolo[5,4-f]isoquinolin-2(3H)-one] | 0.34 | 11.4 | 0.24 | 106 | 8.4 | 9.6
C[C@@H]1Cc2c(ccc3[nH]c(=O)oc23)[C@@H](c2ccc(NC3CN(CCCF)C3)cn2)N1CC(F)(F)F [Example 26, (6S,8R)-6-(5-((1-(3-fluoropropane)azetidin-3-yl)amino)pyridin-2-yl)-8-methyl-7-(2,2,2-trifluoroethyl)-6,7,8,9-tetrahydroxazolo[5,4-f]isoquinolin-2(3H)-one] |  | 58.4 | 0.55 |  |  | 
COc1cc(O[C@H]2CCN(CCCF)C2)ccc1[C@@H]1c2ccc3[nH]c(=O)oc3c2C[C@@H](C)N1CC(F)(F)F [Example 30, (6S,8R)-6-(4-(((S)-1-(3-fluoropropyl)pyrrolidin-3-yl)oxy)-2-methoxyphenyl)-8-methyl-7-(2,2,2-trifluoroethyl)-6,7,8,9-tetrahydroxazolo[5,4-f]isoquinolin-2(3H)-one] | 0.35 | 8.85 | 0.21 | 94.6 | 14.4 | 15.8
COc1cc(NC2CN(CCCF)C2)ccc1[C@@H]1c2ccc3[nH]c(=O)oc3c2C[C@@H](C)N1CC1(F)CC1 [Example 31] | 0.75 | 45.6 | 0.85 | 83.4 | 18.4 | 17.5
COc1cc(NC2CN(CCCF)C2)ccc1[C@@H]1c2ccc3[nH]c(=O)oc3c2C[C@@H](C)N1CC(C)(F)F [Example 32] | 0.42 | 14.7 | 0.39 | 103 | 9 | 9.8
COc1cc(NC2CN(CCCF)C2)cc(Cl)c1[C@@H]1c2ccc3[nH]c(=O)oc3c2C[C@@H](C)N1CC(F)(F)F [Example 33, (6S,8R)-6-(4-((1-(3-fluoropropyl)azetidin-3-yl)amino)-2-methoxy-6-chloro-phenyl)-8-methyl-7-(2,2,2-trifluoroethyl)-6,7,8,9-6,7,8,9-tetrahydrooxazolo[5,4-f]isoquinolin-2(3H)-one] | 0.35 | 11.8 | 0.39 | 111 | 7.9 | 8.3
